According to publication PMC8587849, “Antimicrobial and Anticancer Application of Silver(I) Dipeptide Complexes” (Molecules, 2021):
Read-outs that look alike come from different tables or passages of the source. Where a SMILES comes first, the peptide text is derived from it.

Columns and labels:
HeLa = assay: MTS antiproliferative assay; format: cell-based, human; details: 72 h
Description: (§1) After 72 h of incubation, 10 µL of MTS was added to each well. […] IC50 values were calculated from MTS analyses.

MCF-7 = assay: MTS antiproliferative assay; format: cell-based, human; details: 72 h
Description: as §1

[1] = system: Microsporum gypseum CCM F-8342; assay: Antifungal activity (filamentous fungi), macrodilution on solidified PDA; format: cell-based; details: M.gypseum, read-out: IC50 and MIC100 (class symbol)
Description: (§3) Cultures of bacteria (in Mueller-Hinton broth, MHB) and yeasts (in Sabouraud’s growth medium, SB) were incubated under shaking (250 rpm) at 37 °C. The growth of bacteria and yeasts was evaluated by measuring the absorbance of the growing cultures (A550) until the cultures reached the stationary growth phase. […] During culturing, the diameters of growing fungal colonies were measured at regular intervals [71, 72]. […] The final concentration of DMSO never exceeded 1.0 vol. % in the control or treated samples. […] The IC50 and MIC90 with respect to MIC80 values were evaluated from toxicity curves.

Candida albicans SC 5314 = assay: Antifungal activity (yeast), macrodilution method; format: cell-based; details: C. albicans
Description: as §3

[2] = system: Escherichia coli (E. coli) CCM 3988; assay: Antibacterial activity, macrodilution method; format: cell-based; details: free ligands
Description: (§4) Cultures of bacteria (in Mueller-Hinton broth, MHB) and yeasts (in Sabouraud’s growth medium, SB) were incubated under shaking (250 rpm) at 37 °C. The growth of bacteria and yeasts was evaluated by measuring the absorbance of the growing cultures (A550) until the cultures reached the stationary growth phase. […] The final concentration of DMSO never exceeded 1.0 vol. % in the control or treated samples. […] The IC50 and MIC90 with respect to MIC80 values were evaluated from toxicity curves.

A.flavus = assay: Antifungal activity (filamentous fungi); format: cell-based; details: read-out: IC50 and MIC100 (class symbol)
Description: as §3

[3] = system: Rhizopus oryzae CCM F-8284; assay: Antifungal activity (filamentous fungi), macrodilution on solidified PDA; format: cell-based
Description: as §3

BLM = assay: MTS antiproliferative assay; format: cell-based, human; details: BLM; MTS, 72 h
Description: (§2) Cells were maintained in standard conditions with an atmosphere containing 5% CO2 at 37 °C.
as §1

MDA-MB-231 = assay: MTS antiproliferative assay; format: cell-based, human; details: 72 h
Description: as §2, §1

HCT116 = assay: MTS antiproliferative assay; format: cell-based, human; details: 72 h
Description: as §2, §1

Jurkat = assay: MTS antiproliferative assay; format: cell-based, human; details: 72 h
Description: as §2, §1

[4] = system: methicillin-resistant Staphylococcus aureus L12; assay: Antibacterial activity, macrodilution method; format: cell-based; details: S. aureus L12; free ligands
Description: as §4

[5] = system: Staphylococcus aureus CCM 3953; assay: Antibacterial activity, macrodilution method; format: cell-based; details: S. aureus; free ligands
Description: as §4

[6] = system: Alternaria alternata CCM F-128; assay: Antifungal activity (filamentous fungi), macrodilution on solidified PDA; format: cell-based; details: A. alternata, read-out: IC50 and MIC100 (class symbol)
Description: as §3

BJ-5ta = assay: MTS assay on fibroblasts; format: cell-based; details: BJ-5ta human skin fibroblasts, 72 h
Description: as §1

[7] = system: Candida parapsilosis ATCC 22019; assay: Antifungal activity (yeast), macrodilution method; format: cell-based; details: C. parapsilosis
Description: as §4

[8] = system: Staphylococcus epidermidis CCM 7221; assay: Antibacterial activity, macrodilution method; format: cell-based; details: S.epidermidis; free ligands
Description: as §4

[9] = read-out: IC50 and MIC100 (class symbol)

IC50 [1]	IC50 (A.flavus)	IC50 [3, 9]	IC50 [6]	SMILES	IC50 and MIC80 (class symbol) (Candida albicans SC 5314)	IC50 and MIC90 (class symbol) [2]	IC50 and MIC90 (class symbol) [4]	IC50 and MIC90 (class symbol) [5]	IC50 and MIC80 (class symbol) [7]	IC50 and MIC90 (class symbol) [8]	further results
> 2000 µM	> 2000 µM	> 2000 µM	> 2000 µM	NCC(=O)NCC(=O)O [HGlyGly, Glycyl-L-Glycine, reference compound] (H-Gly-Gly-OH)	N (N- not active IC50 and MIC values > 2 mmol.l-1)	N (N- not active IC50 and MIC90 values > 2 mmol.l-1)	N (N- not active IC50 and MIC90 values > 2 mmol.l-1)	N (N- not active IC50 and MIC90 values > 2 mmol.l-1)	N (N- not active IC50 and MIC values > 2 mmol.l-1)	N (N- not active IC50 and MIC90 values > 2 mmol.l-1)	–
> 2000 µM	> 2000 µM	> 2000 µM	> 2000 µM	NCC(=O)O [Gly, glycine, reference compound]	N (N- not active IC50 and MIC values > 2 mmol.l-1)	N (N- not active IC50 and MIC90 values > 2 mmol.l-1)	N (N- not active IC50 and MIC90 values > 2 mmol.l-1)	N (N- not active IC50 and MIC90 values > 2 mmol.l-1)	N (N- not active IC50 and MIC values > 2 mmol.l-1)	N (N- not active IC50 and MIC90 values > 2 mmol.l-1)	–
–	–	–	–	C[C@H](N)C(=O)O [Ala, alanine, reference compound]	N (N- not active IC50 and MIC values > 2 mmol.l-1)	N (N- not active IC50 and MIC90 values > 2 mmol.l-1)	N (N- not active IC50 and MIC90 values > 2 mmol.l-1)	N (N- not active IC50 and MIC90 values > 2 mmol.l-1)	N (N- not active IC50 and MIC values > 2 mmol.l-1)	N (N- not active IC50 and MIC90 values > 2 mmol.l-1)	IC50 ([1]; Nannizzia gypsea, CCMF8342): > 2000 µM; IC50 (A.flavus; Aspergillus flavus): > 2000 µM; IC50 ([3]; Rhizopus arrhizus, CCMF8284, read-out: IC50 and MIC100 (class symbol)): > 2000 µM; IC50 ([6]; Alternaria alternata, CCMF128): > 2000 µM

SMILES	IC50 [1]	IC50 (A.flavus)	IC50 [3, 9]	IC50 [6]	IC50 and MIC80 (class symbol) (Candida albicans SC 5314)	IC50 and MIC90 (class symbol) [2]	IC50 and MIC90 (class symbol) [4]	IC50 and MIC90 (class symbol) [5]	IC50 and MIC80 (class symbol) [7]	IC50 and MIC90 (class symbol) [8]	further results
NCC(=O)N[C@@H](CC(=O)O)C(=O)O [H2GlyAsp, Glycyl-L-Aspartic acid, reference compound] (H-Gly-Asp-OH)	> 2000 µM	> 2000 µM	> 2000 µM	> 2000 µM	N (N- not active IC50 and MIC values > 2 mmol.l-1)	N (N- not active IC50 and MIC90 values > 2 mmol.l-1)	N (N- not active IC50 and MIC90 values > 2 mmol.l-1)	N (N- not active IC50 and MIC90 values > 2 mmol.l-1)	N (N- not active IC50 and MIC values > 2 mmol.l-1)	N (N- not active IC50 and MIC90 values > 2 mmol.l-1)	IC50 (HeLa): > 300 µM; IC50 (MCF-7): > 300 µM; IC50 (BLM): > 300 µM; IC50 (MDA-MB-231): > 300 µM; IC50 (HCT116): > 300 µM; IC50 (Jurkat): > 300 µM; IC50 (BJ-5ta): > 300 µM
